Data set [1] has as its system NCI-H23 cells. The experiment in a line: MTT anti-proliferative assay, NCI-H23. In kind it is cell-based, human. Particulars: mean ± SD of three experiments. As for the experimental part:
(§1) The antiproliferative activity of the synthesised derivatives of the 3-methylbenzofuran series (4a–d, 6a–c, 8a–c and 11) and the 3-(morpholinomethyl)benzofuran series (15a–c, 16a–b, 17a–b and 18) was evaluated against non-small cell lung carcinoma (NSCLC) A549 and NCI-H23 cell lines, following the procedures of the MTT assay. […] 1. Anti-proliferative action toward human […] cell lines […]
(§2) The two examined human non-small cell lung carcinoma cell lines (A549 and NCI-H23) have been obtained from American Type Culture Collection (ATCC). The cells were maintained in Dulbecco's modified Eagle's medium (DMEM) supplemented with 10% heat inactivated fetal calf serum (GIBCO), penicillin (100 U/ml) and streptomycin (100 µg/ml) at 37 °C in humidified atmosphere containing 5% CO2. […]
(§3) flask in 5 ml of culture medium. The anti-proliferative activity of the tested 3-methylbenzofurans (4a-d, 6a-c, 8a-c and 11) and 3-(morpholinomethyl)benzofurans (15a-c, 16a-b, 17a-b and 18) measured in vitro using the MTT assay. Briefly, cells were plated out in 96-well microtiter plate (0.5X10^4 cells/well) and incubated for 24 h before treatment with the tested benzofurans to allow cells to attach to the bottom of the well of the plate. Tested benzofuranswere were dissolved in DMSO at 1 mg/ml immediately before use and diluted to the appropriate volume just before addition to the cell culture. […]
(§4) added to the cells (three wells were prepared for each individual dose). Cells were incubated with […]
(§5) At the end of exposure, MTT […]
(§6) solution in PBS (5 mg/ml) was then added to all well including no cell blank and left to incubate for 90 min. The formation of formazan crystals were visually confirmed using phase contract microscopy. DMSO (100 µl/well) was added to dissolve the formazan crystals with shaking for 10 min after which the absorbance was read at 590 nm against no cell blanks on a microplate reader.
(§7) The relation between percent of surviving fraction and log drug concentration is plotted to get the survival curve for each cell line.

The next data set deals with A549 cells. Description: MTT anti-proliferative assay, A549. In kind it is cell-based, human. Particulars: mean ± SD of three experiments. How it is done: as §1, §2, §3, §4, §5, §6, §7
A general note: Tetrazolium assays rely on reduction of a dye to a coloured formazan, in cell work by metabolically active cells.

For data set [2], the system named is NCI-H23 cells. Description: Annexin V-FITC/PI apoptosis assay, NCI-H23. In kind it is cell-based, human. The following applies: NCI-H23, at IC50 concentration; control 2.09%. As for the experimental part:
The apoptotic effect of the three benzofurans (4b, 15a and 16a) was evaluated using Annexin VFITC/PI (AV/PI) dual staining assay to validate if their observed cytotoxic effect is due to non-specific necrosis or physiological apoptosis. […] Moreover, the apoptotic effects of 3-(morpholinomethyl)benzofuran derivatives 15a and 16a were evaluated in NCI-H23 cancer cell line.
(§8) Lung cancer A549 cells were treated with benzofuran 4b, whereas NCI-H23 cells were treated […]
twice with ice-cold phosphate buffered saline (PBS). Subsequently, the treated cells were collected by centrifugation, fixed in ice-cold 70% (v/v) ethanol, washed with PBS, re-suspended with 100 μg/mL RNase, stained with 40 μg/mL PI, and analyzed by flow cytometry using FACS Calibur (Becton Dickinson, BD, Franklin Lakes, NJ, USA). The cell cycle distributions were calculated using CellQuest software 5.1 (Becton Dickinson).
3. Annexin V-FITC Apoptosis Assay […]
Cells were then rinsed in binding buffer and resuspended in 150 μL of binding buffer with the addition of 1 μL of DAPI (1 μg/μL in PBS). Cells were then analyzed using the flow cytometer BD FACS Canto II and the results were interpreted with FlowJo7.6.4 software (Tree Star, Ashland, 4. VEGFR-2 Kinase Inhibitory Activity […]

For data set [3], the system named is M. tuberculosis ATCC 27294. Description: Microplate Alamar Blue Assay, anti-tubercular activity. In kind it is cell-based. The following applies: Mycobacterium tuberculosis, ATCC27294, 168 h, MABA, 7 days, read-out: MIC. On the technique in general: Resazurin is reduced to fluorescent resorufin, in cell work by metabolically active cells.
For the next data set, the target named is VEGFR-2 (Homo sapiens, UniProt P35968). Description: VEGFR-2 kinase inhibitory assay (VEGFR2(KDR) Kinase Assay Kit).
Chain of VEGFR-2 (P35968 20-1356): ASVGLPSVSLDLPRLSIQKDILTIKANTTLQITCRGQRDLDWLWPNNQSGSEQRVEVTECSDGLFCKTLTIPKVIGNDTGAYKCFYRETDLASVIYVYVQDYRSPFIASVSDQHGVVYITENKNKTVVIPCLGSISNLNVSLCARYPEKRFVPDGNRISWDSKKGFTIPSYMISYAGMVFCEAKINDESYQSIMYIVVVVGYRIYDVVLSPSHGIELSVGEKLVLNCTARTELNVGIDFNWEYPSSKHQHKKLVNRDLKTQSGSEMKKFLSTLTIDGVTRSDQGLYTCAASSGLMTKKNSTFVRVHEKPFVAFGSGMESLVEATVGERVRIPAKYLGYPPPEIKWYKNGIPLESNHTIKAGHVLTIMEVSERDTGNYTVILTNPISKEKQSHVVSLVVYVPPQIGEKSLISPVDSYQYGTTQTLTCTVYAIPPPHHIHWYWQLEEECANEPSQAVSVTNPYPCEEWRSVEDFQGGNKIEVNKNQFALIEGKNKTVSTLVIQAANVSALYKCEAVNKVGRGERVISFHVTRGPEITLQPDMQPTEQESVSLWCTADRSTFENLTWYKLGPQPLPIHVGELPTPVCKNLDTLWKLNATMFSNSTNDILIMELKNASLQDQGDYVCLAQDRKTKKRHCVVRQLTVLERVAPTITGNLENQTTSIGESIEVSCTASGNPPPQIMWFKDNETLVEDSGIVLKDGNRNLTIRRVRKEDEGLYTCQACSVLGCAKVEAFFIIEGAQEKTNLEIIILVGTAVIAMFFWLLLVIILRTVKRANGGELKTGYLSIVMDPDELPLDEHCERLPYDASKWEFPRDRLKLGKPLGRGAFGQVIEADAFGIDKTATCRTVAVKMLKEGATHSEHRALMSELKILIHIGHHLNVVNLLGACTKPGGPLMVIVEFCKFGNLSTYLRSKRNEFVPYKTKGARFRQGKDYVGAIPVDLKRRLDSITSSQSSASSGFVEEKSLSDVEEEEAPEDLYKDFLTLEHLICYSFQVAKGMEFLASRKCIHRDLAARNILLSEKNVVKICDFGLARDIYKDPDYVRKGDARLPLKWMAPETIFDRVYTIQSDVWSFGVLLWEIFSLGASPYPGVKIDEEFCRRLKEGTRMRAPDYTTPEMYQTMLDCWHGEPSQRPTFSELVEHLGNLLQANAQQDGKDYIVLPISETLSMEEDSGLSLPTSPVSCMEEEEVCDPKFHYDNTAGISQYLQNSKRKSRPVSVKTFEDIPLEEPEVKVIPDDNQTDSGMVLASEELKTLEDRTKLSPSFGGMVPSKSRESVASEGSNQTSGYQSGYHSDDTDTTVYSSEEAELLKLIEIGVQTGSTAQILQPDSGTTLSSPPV
The subject of data set [4] is NCI-H23 cells. Description: Cell cycle analysis (PI flow cytometry), NCI-H23. In kind it is cell-based, human. Particulars: NCI-H23, 24 h at IC50 concentration. How it is done: as §8
twice with ice-cold phosphate buffered saline (PBS). Subsequently, the treated cells were collected by centrifugation, fixed in ice-cold 70% (v/v) ethanol, washed with PBS, re-suspended with 100 μg/mL RNase, stained with 40 μg/mL PI, and analyzed by flow cytometry using FACS Calibur (Becton Dickinson, BD, Franklin Lakes, NJ, USA). The cell cycle distributions were calculated using CellQuest software 5.1 (Becton Dickinson). […]

For a further data set, the system named is WI-38 cell line. The experiment in a line: Cytotoxic activity against non-tumorigenic WI-38 cell line. In kind it is cell-based, human. An excerpt:
Antiproliferative agents are designed to inhibit the cellular growth of tumour cells selectively, while sparing the normal cells.

Values after ≈ are worked out from the molar mass of the structure shown.

Description for VEGFR-2: CA, USA), according to the manufacturer’s instructions.

With `COc1cccc(NC(=S)NNC(=O)c2oc3ccccc3c2C)c1` [Compound 4a, N-(3-Methoxyphenyl)-2–(3-methylbenzofuran-2-carbonyl)hydrazine-1-carbothioamide], the melting point (in general, the temperature, or range, at which the solid turns liquid) was in the range of 172 to 174 °C. Further, in the data set on NCI-H23 cells [1] (Homo sapiens, NCI-H23, 48 h), the IC50 – broadly, the concentration at which inhibition is half-maximal – turned out to be 34.2 ± 1.71 µM. In the data set with A549 cells (Homo sapiens, A549, 48 h), this compound returned an IC50 of 10.1 ± 0.55 µM.
With `Cc1c(C(=O)NNC(=S)Nc2cccc(C(F)(F)F)c2)oc2ccccc12` [Compound 4c, 2-(3-Methylbenzofuran-2-carbonyl)-N-(3-(trifluoromethyl)phenyl)hydrazine-1-carbothioamide], the melting point fell in the range of 170 to 172 °C. The compound further yielded a half-inhibitory concentration (IC50) with NCI-H23 cells [1] (Homo sapiens, NCI-H23, 48 h) of 24.36 ± 0.12 µM.
In the case of `Cc1c(C(=O)NNC(=S)Nc2ccc(F)cc2)oc2ccccc12` [Compound 4d, N-(4-Fluorophenyl)-2-(3-methylbenzofuran-2-carbonyl)hydrazine-1-carbothioamide], the melting point fell in the range of 206 to 210 °C. In the data set on NCI-H23 cells [1] (Homo sapiens, NCI-H23, 48 h), this compound gave an IC50 of 67.2 ± 3.36 µM. Besides, it took 12.8 ± 0.7 µM to reach half-maximal inhibition with A549 cells (Homo sapiens, A549, 48 h) (IC50).
Compound `COc1cccc(NC(=O)NNC(=O)c2oc3ccccc3c2C)c1` [Compound 6a, N-(3-Methoxyphenyl)-2-(3-methylbenzofuran-2-carbonyl)hydrazine-1-carboxamide] showed a melting point of 162 to 164 °C. Also, the IC50 in the data set on NCI-H23 cells [1] (Homo sapiens, NCI-H23, 48 h) came to 56.7 ± 2.83 µM. In the data set on A549 cells (Homo sapiens, A549, 48 h), this compound had an IC50 of 15.1 ± 0.83 µM.
The matching figures for `COc1ccc(NC(=O)NNC(=O)c2oc3ccccc3c2C)cc1` [Compound 6b, N-(4-Methoxyphenyl)-2-(3-methylbenzofuran-2-carbonyl)hydrazine-1-carboxamide]: 236 to 240 °C, 9.24 ± 0.46 µM and 12.5 ± 0.68 µM.
`Cc1c(C(=O)NNC(=O)Nc2ccc(Cl)c(C(F)(F)F)c2)oc2ccccc12` [Compound 6c, N-(4-Chloro-3-(trifluoromethyl)phenyl)-2-(3-methylbenzofuran-2-carbonyl)hydrazine-1-carboxamide] registered a melting point of 240 to 242 °C. For the same compound, in the data set on NCI-H23 cells [1] (Homo sapiens, NCI-H23, 48 h), the IC50 came to 24.5 ± 1.23 µM. 47 ± 2.57 µM corresponded to half-maximal inhibition in the data set with A549 cells (Homo sapiens, A549, 48 h) (IC50).
The like results for `COc1cccc(C=NNC(=O)c2oc3ccccc3c2C)c1` [Compound 8a, N'-(3-Methoxybenzylidene)-3-methylbenzofuran-2-carbohydrazide] were, in that order, 242 to 244 °C, 14.9 ± 0.74 µM and 44.1 ± 2.41 µM.
The matching figures for `COc1ccc(C=NNC(=O)c2oc3ccccc3c2C)cc1` [Compound 8b, N'-(4-Methoxybenzylidene)-3-methylbenzofuran-2-carbohydrazide]: 236 to 240 °C, 6.15 ± 0.31 µM and 9.2 ± 0.5 µM.
The matching figures for `COc1ccc(C(C)=NNC(=O)c2oc3ccccc3c2C)cc1` [Compound 8c, N'-(1-(4-Methoxyphenyl)ethylidene)-3-methylbenzofuran-2-carbohydrazide]: 160 °C, 14 ± 0.7 µM and 16.4 ± 0.89 µM.
Compound `Cc1c(C(=O)NN=C2CCCc3ccccc32)oc2ccccc12` [Compound 11, N'-(3,4-Dihydronaphthalen-1(2H)-ylidene)-3-methylbenzofuran-2-carbohydrazide] showed a melting point of 180 to 182 °C. Also, the IC50 in the data set with NCI-H23 cells [1] (Homo sapiens, NCI-H23, 48 h) is 12.1 ± 0.6 µM. This compound also came in with an IC50 in the data set with A549 cells (Homo sapiens, A549, 48 h) of 30.2 ± 1.65 µM.
The matching figures for `COc1ccc(NC(=S)NNC(=O)c2oc3ccccc3c2CN2CCOCC2)cc1` [Compound 15b, N-(4-Methoxyphenyl)-2-(3-(morpholinomethyl)benzofuran-2-carbonyl)hydrazine-1-carbothioamide]: 198 to 200 °C, 68.9 ± 3.44 µM and 5.7 ± 0.31 µM.
As to `O=C(NNC(=S)Nc1cccc(C(F)(F)F)c1)c1oc2ccccc2c1CN1CCOCC1` [Compound 15c, 2-(3-(Morpholinomethyl)benzofuran-2-carbonyl)-N-(3-(trifluoromethyl)phenyl)hydrazine-1-carbothioamide], the melting point fell in the range of 210 to 212 °C. Also, the midpoint of inhibition in the data set on NCI-H23 cells [1] (48 h), the IC50, lay at 2.22 ± 0.11 µM. The same compound had an IC50 in the data set on NCI-H23 cells [1] (Homo sapiens, NCI-H23, 48 h) of 2.21 µM. Moreover, the half-maximal inhibitory concentration (IC50) with A549 cells (Homo sapiens, A549, 48 h) is 6.3 ± 0.34 µM.
Consider `COc1cccc(NC(=O)NNC(=O)c2oc3ccccc3c2CN2CCOCC2)c1` [Compound 16a, N-(3-Methoxyphenyl)-2-(3-(morpholinomethyl)benzofuran-2-carbonyl)hydrazine-1-carboxamide], for which the IC50 turned out to be 0.49 ± 0.02 µM in the data set with NCI-H23 cells [1] (Homo sapiens, NCI-H23, 48 h); 1.5 ± 0.08 µM in the data set with A549 cells (48 h); 1.52 µM in the data set with A549 cells (Homo sapiens, A549, 48 h); 0.0454 ± 0.0027 µM on VEGFR-2; 12.9 ± 0.78 µM in the data set with WI-38 cell line (non-tumorigenic human lung WI-38 cell line). The compound also returned a total apoptosis in the data set on NCI-H23 cells [2] of 36.81%. Further, in data set [3], the MIC (usually the lowest concentration that inhibits growth of the organism) was determined as 125 µg/mL (≈ 294 µM). In addition, the “S phase, fold vs control” value with NCI-H23 cells [4] (attenuated) was 0.51 fold. For the same compound, the “G2/M phase cell population, fold vs control” value with NCI-H23 cells [4] (augmentation) is given as 6.90 fold. In addition, the “sub-G1 phase cell population, fold vs control” value in the data set with NCI-H23 cells [4] (augmentation) is given as 12.54 fold. Also, the “G0–G1 phase, fold vs control” value in the data set with NCI-H23 cells [4] (reduced) was determined as 0.47 fold. The compound further registered a Mean tumour selectivity with WI-38 cell line (S.I. WI-38/A549 and NCI-H23) of 12.9.
The compound `COc1ccc(NC(=O)NNC(=O)c2oc3ccccc3c2CN2CCOCC2)cc1` [Compound 16b, N-(4-Methoxyphenyl)-2-(3-(morpholinomethyl)benzofuran-2-carbonyl)hydrazine-1-carboxamide] yielded a melting point of 242 to 244 °C. In the data set on NCI-H23 cells [1] (Homo sapiens, NCI-H23, 48 h), this compound had an IC50 of 5.09 ± 0.25 µM. For the same compound, the IC50 with A549 cells (Homo sapiens, A549, 48 h) came out at 18.9 ± 1.03 µM.
`O=C(NN=Cc1ccccc1)c1oc2ccccc2c1CN1CCOCC1` [Compound 17a, N'-Benzylidene-3-(morpholinomethyl)benzofuran-2-carbohydrazide] had a melting point of 174 °C. Further, half-maximal inhibition in the data set with NCI-H23 cells [1] (Homo sapiens, NCI-H23, 48 h) (IC50) was put at 23 ± 1.15 µM. For the same compound, the IC50 in the data set with A549 cells (Homo sapiens, A549, 48 h) is 6.01 ± 0.03 µM.
The matching figures for `COc1ccc(C=NNC(=O)c2oc3ccccc3c2CN2CCOCC2)cc1` [Compound 17b, N'-(4-Methoxybenzylidene)-3-(morpholinomethyl)benzofuran-2-carbohydrazide]: 200 °C, 3.04 ± 0.15 µM and 10.8 ± 0.59 µM.
The like results for `O=C(NN=C1CCCc2ccccc21)c1oc2ccccc2c1CN1CCOCC1` [Compound 18, N'-(3,4-Dihydronaphthalen-1(2H)-ylidene)-3-(morpholinomethyl)benzofuran-2-carbohydrazide] were, in that order, 200 °C, 29.8 ± 1.49 µM and 3.7 ± 0.2 µM.
As for `NNC(=O)c1ccncc1` [INH, Isoniazid, reference compound], in data set [3], the MIC was found to be 0.24 µg/mL (≈ 1.75 µM).
